# US20190134150A1, “THERAPEUTIC METHODS FOR EXCITATORY NEUROTOXICITY-RELATED INJURIES” (Biocells (Beijing) Biotech Co., Ltd., priority 2016, published 2019)
# Several values for one entry are separate records, joined by “and”; a condition that tells them apart may be missing. Equal entries are not always repeated. No end group written: not given here.
# How the values were obtained:
# MCAO model rats = test: Cerebral infarction volume (TTC staining) in MCAO model rats; settings: rat, in vivo
# Protocol: The focal cerebral ischemia-reperfusion model was prepared according to the reversible middle cerebral artery occlusion (MCAO) suture method proposed by Longa with modifications in view of the anatomical structure of the rat brain. The rats were anesthetized by intraperitoneal administration of 10% chloral hydrate at a dose of […]. After anesthetization, a cut was created at the cervical midline, and the common carotid artery (CCA), external carotid artery (ECA) and pterygopalatine artery were exposed. The head portion (0.5 cm) of a monofilament nylon fishing line (0.26 mm) was coated with paraffin and a mark was made at 20 mm. All rats were inserted through the right CCA incision, and the pterygopalatine artery was temporarily clamped to prevent mis-insertion. The length of the occlusion line was about 18-20 mm from the bifurcation of CCA depending on the animal's weight, thereby occluding middle cerebral artery on the right side. The skin was then sewed, and the tail end of the occlusion line was partially fixed to the skin. After a period of ischemia for 2 hours, the occlusion line was carefully pulled out to form a reperfusion. The procedure steps for the sham control were the same as the surgery group, except for insertion of a nylon fishing line. The body temperature was maintained at 37±0.5° C. during the ischemia period and 2 h after reperfusion.
# The used animals were male adult SD rats (Vittalia) of SPF grade with body weight of 220-250 g.
# The experimental animals were divided into the negative control group, sham group, model group, positive drug Enbipu group, NA-1 group, YE-NA-1 group and P6 group. A saline solution, positive drug Enbipu, NA-1 (10 mg/kg), YE-NA-1 (10 mg/kg) and P6 (10 mg/kg, 3 mg/kg and 1 mg/kg) were respectively administered to individual group of rats via tail vein injection at 1 hour after ischemia. No drugs were administered to the normal group and the sham group.
# The rats were sacrificed by decapitation after scoring. The brain tissues were quickly removed and placed in a refrigerator at −20° C. After 10 minutes, the tissues were placed in a room temperature environment. The brains were placed in a rat brain section mold. After the olfactory bulb, cerebellum and low brain stem were removed, the brains were coronally cut five times at 2 mm thickness as shown in the profile to obtain six continuous raw coronal slices. Then, the brain sections were quickly placed in a 5 ml solution containing 2% TTC, and incubated at 37° C. for 30 minutes in the dark, during which the brain sections were flipped once every 5 minutes. With the TTC staining, the normal tissue would be rose red, and the infarcted tissue would be unstained and retained white. Each group of brain sections was arranged neatly, and photographed. The photos were processed by an image analysis system software and statistically analyzed. The infarction area of each brain section was calculated, and multiplied by the thickness of each brain section (2 mm). The products of the infarction area of individual brain section multiplied by the thickness were summed to obtain the cerebral infarction volume for each animal. The volumes were expressed as percentages accounting for the cerebral hemisphere to eliminate the effects of cerebral edema.
# PDZ1/2 domain = test: SPR, Biacore 3000, PDZ1/2 amine-coupled on CM5 chip, peptide as analyte, 1:1 model
molecule,measurement,setting,value
"YGRKKRRQRRRKLSSIESDV [NA-1, reference compound]",Mean of infarction volume percentage,MCAO model rats,38.56%
"YGRKKRRQRRRYEKLSSIESDV [YE-NA-1, reference compound]",Mean of infarction volume percentage,MCAO model rats,33.96%
YGRKKRRQRRRYEKLTTLDTGGV [P6],Mean of infarction volume percentage,MCAO model rats,26.71% and 37.89% and 43.75%
same,Mean of infarction volume percentage,MCAO model rats; 1 mg/kg,41.56%
same,Reduction of infarction volume percentage vs model group,MCAO model rats; 1 mg/kg,9.57%
same,Mean of infarction volume percentage,MCAO model rats; 3 mg/kg,38.34%
same,Reduction of infarction volume percentage vs model group,MCAO model rats; 3 mg/kg,16.58%
same,effect on cerebral infarction volume,MCAO model rats; 3 mg/kg,desirably reduced the cerebral infarction volume
same,Mean of infarction volume percentage,MCAO model rats; 10 mg/kg,19.54%
same,Reduction of infarction volume percentage vs model group,MCAO model rats; 10 mg/kg,57.48%
same,reduction of cerebral infarction volume,MCAO model rats; 10 mg/kg,about 50%
control chimeric peptide NA-1,Kd,PDZ1/2 domain,75.3 nM
YGRKKRRQRRRYEKLSSIESDV [chimeric peptide YE-NA-1],Kd,PDZ1/2 domain,54.4 nM
